Source: ChEMBL document CHEMBL4359904, “Structural tuning of acridones for developing anticancer agents targeting dihydrofolate reductase” (Bioorg Med Chem Lett, 2019)
pIC50: −log10 of the molar value. Activity calls are given as the source filed them. The calls are words filed in the database; no cut-off is given here.

How the values were obtained:
C6 [1] = assay: Induction of morphological changes in rat C6 cells assessed as cellular senescence by measuring cell rounding with distorted morphology after 24 hrs by inverted microscopy analysis; format: functional, cell-based
Dihydrofolate reductase = molecular target: T1, Dihydrofolate reductase (Homo sapiens, UniProt P00374); assay: Inhibition of human dihydrofolate reductase using dihydrofolic acid as substrate preincubated for 1 hr in presence of NADPH followed by substrate addition by enzyme immunoassay
T1 sequence (P00374 whole entry): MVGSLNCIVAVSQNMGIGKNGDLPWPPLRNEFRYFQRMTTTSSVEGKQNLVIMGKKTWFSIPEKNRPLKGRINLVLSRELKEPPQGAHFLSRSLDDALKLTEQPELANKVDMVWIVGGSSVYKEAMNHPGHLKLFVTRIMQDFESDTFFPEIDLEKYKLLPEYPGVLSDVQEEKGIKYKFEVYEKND

C6 [2] = assay: Antiproliferative activity against rat C6 cells assessed as decrease in cell viability measured after 48 hrs by MTT assay; format: functional, cell-based; details: for pIC50: C6, 48 h
C6 [3] = assay: Cell cycle arrest in rat C6 cells assessed as cell population at G0/G1 phase measured after 24 hrs by propidium iodide staining based flow cytometry analysis; format: functional
C6 [4] = assay: Cell cycle arrest in rat C6 cells assessed as increase in cell population at sub G0 phase measured after 24 hrs by propidium iodide staining based flow cytometry analysis; format: functional
C6 [5] = assay: Cell cycle arrest in rat C6 cells assessed as decrease in cell population at S phase measured after 24 hrs by propidium iodide staining based flow cytometry analysis; format: functional
C6 [6] = assay: Cell cycle arrest in rat C6 cells assessed as decrease in cell population at G2/M phase measured after 24 hrs by propidium iodide staining based flow cytometry analysis; format: functional
C6 [7] = assay: Induction of morphological changes in rat C6 cells assessed as increase in total length of processes measured after 24 hrs by inverted microscopy analysis relative to control; format: functional
UO-31 = assay: Growth inhibition of human UO31 cells at 10^-5 M incubated for 48 hrs by sulforhodamine B assay relative to control; format: functional; details: UO-31, 48 h, read-out: GI
MCF7 = assay: Growth inhibition of human MCF7 cells at 10^-5 M incubated for 48 hrs by sulforhodamine B assay relative to control; format: functional; details: MCF7, 48 h, read-out: GI

Row | Structure (SMILES) | Activity (C6 [1]) | pIC50 (Dihydrofolate reductase) | inhibition (C6 [2]) | pIC50 (C6 [2]) | Activity (C6 [3]) | inhibition (C6 [6]) | further results
1 | C[C@H](NC(=O)CNC(=O)c1cccc2c(=O)c3ccccc3[nH]c12)C(=O)O | Active | 6.17 | Dose-dependent effect | 5.82 to 6.60 | inactive | – | –
2 | COc1cccc2c1C(=O)c1c(O)c3c(c(O)c1C2=O)C[C@@](O)(C(=O)CO)C[C@@H]3O[C@H]1C[C@H](N)[C@@H](O)[C@H](C)O1 | – | – | – | – | – | Active | Activity (C6 [4]): Active; inhibition (C6 [5]): Active
3 | CC1=NN(c2cccc(Cl)c2)C(=O)/C1=C\c1cn(CC(O)Cn2c3ccccc3c(=O)c3ccccc32)c2ccccc12 (racemic) | – | 5.74 | – | – | – | – | –
4 | O=C1Nc2ccccc2/C1=C/c1cn(CC(O)Cn2c3ccccc3c(=O)c3ccccc32)c2ccccc12 (racemic) | Active | 7.00 | Dose-dependent effect | 5.82 to 6.60 | inactive | Active | Activity (C6 [7]): 16 - 18%; inhibition of growth at 10 µM (UO-31): 70%; inhibition of growth at 10 µM (MCF7): 55%
5 | CN1C(=O)C(=Cc2cn(CC(O)Cn3c4ccccc4c(=O)c4ccccc43)c3ccccc23)C(=O)N(C)C1=O (racemic) | – | 6.68 | – | – | – | – | –
